Values joined by “and” are separate entries in the source; they are usually repeats but may differ in a detail not shown here. Equal entries are not always repeated. Structures can show the parent of a compound that is named as a salt. Where two headings read alike, the source gives them in different places.
Assays:
[1] = biological target: T1, cdk2/cyclin E (Homo sapiens, UniProt P24941); assay: Cyclin-Dependent Kinase 2 Assay (cdk2/cyclin E, GST-Rb substrate); assay type: biochemical; settings: recombinant cdk2/cyclin E, 10 μM ATP, 30 min at 30° C., several values in a cell = separate determinations, read-out: CDK-2 Inhibition IC50
T1 construct: made in house; host or cells: insect cells (baculovirus co-infection)
Experimental: Substrate: GST-Rb as described above for cdk4/cyclin D1
Assay conditions for cdk2/cyclin E were identical to those for cdk4/cyclin D1 including the substrate. The concentration of recombinant cdk2/cyclin E in the assay was 0.1 μg per 100 μl assay. Incubation was for 30 min at 30° C.

[2] = biological target: T2, cdk4/cyclin D1 (Homo sapiens, UniProt P11802); assay: Cyclin-dependent Kinase 4 Assay (cdk4/cyclin D1, GST-Rb substrate); assay type: biochemical; settings: cdk4/cyclin D1 insect cell lysate, 10 μM ATP, 30 min at 37° C., several values = separate determinations, read-out: CDK4 Inhibition IC50
T2 construct: made in house; host or cells: Sf9 insect cells (Bac-to-Bac baculovirus, pFastBac)
Experimental: The IC50 values for cdk4 inhibition were by the following method:
The transformed bacteria were grown overnight to saturation, then diluted in YT broth and incubated at 37° C. for 2 h. The protein was induced by incubation with 0.1 mM isopropylthioglycoside for 3 h. Following sedimentation by centrifugation, the cells were lysed by sonication in STE buffer ([…] NaCl, 10 mM Tris, pH 8.0, 1 mM EDTA) containing 10% sarkosyl. Particulate matter was removed by centrifugation and the lysate was incubated with glutathione-Sepharose at 4° C. The beads were washed with kinase buffer and then quantitation of Coomassie blue-stained proteins separated by SDS-PAGE was performed using a protein standard of known concentration.
The cDNA for human cyclin D1 was cloned by RT PCR using […] from MCF-7 cells. […] Bacmid DNA was used to transfect Sf9 insect cells to produce recombinant virus. Following plaque purification of the virus, the viral preparations were amplified until high titer stocks were acheived.
Lysates were prepared by lysis of Sf9 cells coinfected with cdk4 and cyclin D1 in 50 mM HEPES, pH 7.5, 10 mM MgCl2, 1 mM DTT, 0.1 mM phenylmethylsulfonyl fluoride, 5 μg/ml aprotinin, and 5 μg/ml leupeptin using a PARR bomb under 500 p.s.i nitrogen pressure for 5 min at 4° C. Insoluble material was sedimented at 10,000×g for 20 min at 4° C. Glycerol was added to the supernatant to 10% and stored at −80° C. in aliquots.
Pre-wet Millipore Multiscreen 96-well filter plates (0.65 μm Durapore filters) with 200 μl kinase buffer (50 mM HEPES, pH 7.5, 10 mM MgCl2, 1 mM EGTA). GST-Rb (0.5 μg) bound to glutathione-Sepharose beads is added in 50 μl per well and the solution removed by application of vacuum. […] Add 0.1 μg cdk4/cyclin D1 (insect cell lysate) to initiate assay. Incubate 30 min at 37° C. Terminate reaction by filtration on Millipore Vacuum Manifold. Wash four times with TNEN (20 mM Tris, pH 8.0, 100 mM Na Cl, 1 mM EDTA, 0.5% nonidet P-40). After drying the plates at room temperature, the filter plates were placed in adapter plates (Packard) and 40 μl of Microscint-O® (Packard) was added to each well. Top Seal A film was used to cover the plates before counting in a Top Count Scintillation Counter.

[3] = test system: MDA-MB-231; assay: In vitro tumor cell proliferation, MDA-MB-231; assay type: cell-based, human; settings: sulforhodamine B or CyQUANT assay, many values given with an undefined *, read-out: In vitro Tumor Cell Proliferation (IC50, μM) Breast MDA-MB-231
Experimental: (§1) The proliferation of tumor cells was measured using a sulforhodamine B assay as described in Skehan, P., et al., J. Natl. Cancer Inst. […] Tumor cells were harvested with trypsin-EDTA, cells that excluded trypan blue were counted, added to 96-well plates and incubated overnight at 37° C. Drug was added to the wells following dilution in culture medium. Three days later, the medium was removed and replenished with medium containing fresh drug and incubated an additional 4 days. The cells were then fixed with 0.1 ml 10% trichloroacetic acid for 60 min at 4° C. The plates were rinsed five times with tap water, air-dried and stained for 30 min with 0.4% sulforhodamine B in 1% acetic acid and air-dried.
(§2) Alternatively, the CyQUANT cell proliferation assay was used to quantitate cell proliferation.
(§3) Alternatively, the CyQUANT cell proliferation assay was used to quantify tumor cell proliferation. Tumor cells were harvested with trypsin-EDTA, cells that excluded trypan blue were counted, added to 96-well plates and incubated overnight at 37° C. Drug was added to the wells following dilution in culture medium. Three days later the medium was removed and the plates frozen at −80° C. for at least 30 minutes.
MDA-MB-23 1 is a human breast adenocarcinoma, hormone-independent (HTB 26);

[4] = test system: MDA-MB-435; assay: In vitro tumor cell proliferation, MDA-MB-435; assay type: cell-based; settings: values given with an undefined *, read-out: In vitro Tumor Cell Proliferation (IC50, μM) Breast MDA-MB-435
Experimental: as §1, §2, §3

[5] = test system: HT-29; assay: In vitro tumor cell proliferation, HT-29; assay type: cell-based, human; settings: many values given with an undefined *, read-out: In vitro Tumor Cell Proliferation (IC50, μM) Colon HT-29
Experimental: as §1, §2, §3
HT-29 is a human colon adenocarcinoma, moderately well-differentiated grade II (HTB 38);

[6] = test system: Colo-205; assay: In vitro tumor cell proliferation, Colo-205; assay type: cell-based; settings: values given with an undefined *, read-out: In vitro Tumor Cell Proliferation (IC50, μM) Colon Colo-205
Experimental: as §1, §2, §3

[7] = test system: DMS-114; assay: In vitro tumor cell proliferation, DMS-114; assay type: cell-based, human; settings: many values given with an undefined *, read-out: In vitro Tumor Cell Proliferation (IC50, μM) Lung DMS-114
Experimental: DMS-1 14: human small cell lung carcinoma;
as §1, §2, §3

[8] = test system: PC-3; assay: In vitro tumor cell proliferation, PC-3; assay type: cell-based, human; settings: many values given with an undefined *, read-out: In vitro Tumor Cell Proliferation (IC50, μM) Prostate PC-3
Experimental: as §1, §2, §3

[9] = test system: A549; assay: In vitro tumor cell proliferation, A549; assay type: cell-based, human; settings: many values given with an undefined *, read-out: In vitro Tumor Cell Proliferation (IC50, μM) Lung A549
Experimental: as §1, §2, §3

[10] = test system: DU145; assay: In vitro tumor cell proliferation, DU145; assay type: cell-based, human; settings: many values given with an undefined *, read-out: In vitro Tumor Cell Proliferation (IC50, μM) Prostate DU145
Experimental: as §1, §2, §3

[11] = Homo sapiens, MDA-MB-231, MDA-MB-231
[12] = Homo sapiens, MDA-MB-435, MDA-MB-435
[13] = Homo sapiens, COLO 205, Colo-205

T2 sequence (P11802 whole entry): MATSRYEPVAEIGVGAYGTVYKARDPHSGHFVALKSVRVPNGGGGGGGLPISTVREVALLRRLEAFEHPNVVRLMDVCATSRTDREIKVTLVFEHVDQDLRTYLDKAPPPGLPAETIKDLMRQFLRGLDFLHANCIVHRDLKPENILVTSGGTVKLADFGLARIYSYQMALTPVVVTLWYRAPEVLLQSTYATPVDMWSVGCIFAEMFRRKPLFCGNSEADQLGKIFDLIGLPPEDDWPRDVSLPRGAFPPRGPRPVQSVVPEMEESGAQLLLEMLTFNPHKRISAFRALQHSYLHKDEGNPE
T2 sequence (P24385 whole entry partner): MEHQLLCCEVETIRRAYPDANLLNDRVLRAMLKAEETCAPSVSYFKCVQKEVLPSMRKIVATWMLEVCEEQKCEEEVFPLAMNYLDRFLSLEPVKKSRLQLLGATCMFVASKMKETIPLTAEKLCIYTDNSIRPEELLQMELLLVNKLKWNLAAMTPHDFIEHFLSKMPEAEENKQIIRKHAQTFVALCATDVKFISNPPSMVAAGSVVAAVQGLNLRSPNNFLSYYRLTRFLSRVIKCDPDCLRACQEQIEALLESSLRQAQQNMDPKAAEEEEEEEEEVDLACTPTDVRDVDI

Row | Structure (SMILES) | IC50 [1] | IC50 [2] | IC50 [3, 11] [µM] | IC50 ([3]; MDA-MB-231, dihydrochloride) [µM] | IC50 [4, 12] [µM] | IC50 ([4]; MDA-MB-435, dihydrochloride) [µM] | IC50 ([5]; HT-29, dihydrochloride) [µM] | IC50 ([5]; Homo sapiens, HT-29, HT-29) [µM] | IC50 ([6]; Colo-205, dihydrochloride) [µM] | IC50 [6, 13] [µM] | IC50 ([7]; DMS-114, dihydrochloride) [µM] | IC50 ([7]; Homo sapiens, DMS-114, DMS-114) [µM] | IC50 ([8]; Homo sapiens, PC-3, PC-3) [µM] | IC50 ([8]; PC-3, dihydrochloride) [µM] | IC50 ([9]; Homo sapiens, A549, A549) [µM] | IC50 ([10]; Homo sapiens, DU-145, DU145) [µM] | IC50 ([9]; A549, dihydrochloride) [µM] | other results
1 | COCCCNc1nc(N[C@H]2CC[C@H](N)CC2)nc2c1ncn2C1CCCC1 [Example 22, 2-[Trans-(4-aminocyclohexyl)amino]-6-(3-methoxypropylamino)-9-cyclopentylpurine dihydrochloride] | 370 nM | 400 nM and 1300 nM and 570 nM | 4.2 | 8.2 | 10 | 11 | 4.4 | 4 | 5.3 | 3.9 | 2.8 | 2.7 | 2.5 | 2.3 | – | – | – | –
2 | N[C@H]1CC[C@H](Nc2nc(NC3CCN(Cc4ccccc4Cl)CC3)c3ncn(C4CCCC4)c3n2)CC1 [Example 43, 2-[Trans-(4-aminocyclohexyl)amino]-6-[4-(1-(2-chlorobenzyl))piperidinylamino]-9-cyclopentylpurine] | 150 nM and 200 nM | 3900 nM and 7700 nM | 0.37 | – | 0.33 | – | – | – | – | 0.28 | – | 0.43 | – | – | 0.25 | 0.3 | – | IC50 ([3]; MDA-MB-231): 0.43 µM; IC50 ([4]; MDA-MB-435): 0.57 µM; IC50 ([6]; Colo-205): 0.23 µM; IC50 ([9]; A549): 0.23 µM; IC50 ([7]; DMS-114): 0.41 µM; IC50 ([10]; DU145): 0.32 µM
3 | COc1cccc(CCNc2nc(N[C@H]3CC[C@H](N)CC3)nc3c2ncn3C2CCCC2)c1 [Example 27, 2-[Trans-(4-aminocyclohexyl)amino]-6-[2-(3-methoxyphenyl)ethylamino]-9-cyclopentylpurine dihydrochloride] | 130 nM | 1400 nM | 10 | 6 | 9.3 | 7.2 | 5.2 | 3.8 | 4.6 | 4.9 | – | 2.1 | 2.6 | 3 | 3.1 | – | 1.6 | –
4 | N[C@H]1CC[C@H](Nc2nc(NC3CCN(CC4CC4)CC3)c3ncn(C4CCCC4)c3n2)CC1 [Example 52, 2-[Trans-(4-aminocyclohexyl)amino]-6-[4-(1-cyclopropylmethyl)piperidinylamino]-9-cyclopentylpurine] | 190 nM | 740 nM and 1400 nM and 1100 nM | 1 | – | 2.1 | – | – | 1.6 | – | 1.5 | – | – | 1.7 | – | 0.57 | 1.4 | – | IC50 ([3]; MDA-MB-231): 1.2 µM; IC50 ([4]; MDA-MB-435): 2.4 µM; IC50 ([5]; HT-29): 2 µM; IC50 ([6]; Colo-205): 1.1 µM; IC50 ([9]; A549): 0.68 µM; IC50 ([8]; PC-3): 2.1 µM; IC50 ([10]; DU145): 1.5 µM
5 | N[C@H]1CC[C@H](Nc2nc(NCCOCCO)c3ncn(C4CCCC4)c3n2)CC1 [Example 26, 2-[Trans-(4-aminocyclohexyl)amino]-6-(2-hydroxyethoxyethylamino)-9-cyclopentylpurine dihydrochloride] | 110 nM | 530 nM and 520 nM | – | – | 23 | 22 | 22 | – | 15 | – | 15 | 17 | 15 | 8 | – | – | 17 | –
6 | COc1ccc(CNc2nc(N[C@H]3CC[C@H](N)CC3)nc3c2ncn3C(C)C)cc1OC [Example 19, 2-[Trans-(4-aminocyclohexyl)amino]-6-[(3.4-dimethoxybenzyl)amino]-9-(2-propyl)purine dihydrochloride] | 540 nM | 20000 nM | 15 | – | 20 | – | – | – | 10 | 12 | 15 | 12 | – | – | 22 | – | – | –
7 | N[C@H]1CC[C@H](Nc2nc(Nc3ccccc3)c3ncn(C4CCCC4)c3n2)CC1 [Example 32, 2-[Trans-(4-aminocyclohexyl)amino]-6-(phenylamino)-9-cyclopentylpurine dihydrochloride] | 54 nM and 25 nM and 27 nM and 14 nM | 1300 nM and 1600 nM | 0.85 | 0.68 | 1.59 | 1.39 | 1.1 | 1 | 1.2 | 0.82 | 0.51 | 0.61 | – | – | 0.37 | 0.39 | 0.68 | IC50 ([10]; DU145, dihydrochloride): 0.64 µM

From US6479487B1, “6, 9-disubstituted 2-[trans-(4-aminocyclohexyl)amino] purines” (Aventis Pharmaceuticals Inc., priority 1998, dated 2002)
